Measured values: paper PMC6627744, “A Tiny Change Makes a Big Difference in the Anti-Parasitic Activities of an HDAC Inhibitor” (International Journal of Molecular Sciences, 2019)
Like-named read-outs stand apart in the source and are kept apart here.

What was measured:
[1] = tested on: RH type I strain of T. gondii; design: method as in PMID 29414107; conditions: cited from earlier work
[2] = tested on: Pru type II strain of T. gondii; test: Anti-T. gondii activity in infected HFF monolayers, type II strain; assay type: cell-based; conditions: Toxoplasma gondii, 24 h, read-out: IC50, inhibition of T. gondii type II strain
Protocol: (§1) Confluent Human Foreskin Fibroblast (HFF) monolayers were infected with YFP-type I Rh kindly provided by B. Striepen or Tomato-type II Pru kindly provided by Professor N. Blanchard (Toulouse), at 5 × 10^4 parasites per well. They were then centrifuged for 30 s at 250 g and incubated for 30 min in a water bath at 37 °C to allow invasion. The wells were washed three times with PBS to eliminate extracellular parasites, and the drugs were added at concentrations ranging from 0.01 to 3.0 μM. After incubation for 24 h at 37 °C in a humidified atmosphere containing 5% CO2, the cells were fixed in 2.5% methanol-free formaldehyde (Tebu-bio, Le Perray-en-Yvelines, France)/PBS for 30 min at room temperature. Nuclei were stained with Hoechst 33258 (2 µg/mL, Molecular Probes) for 20 min and washed three times with water. The number of infected cells, i.e., cells harboring a parasitophorous vacuole (see supplementary data S3 for an example), and the number of parasites per vacuole were determined using an Olympus ScanR microscope (×20 objective) and ScanR software. The parasitic index in % compared to the control was calculated as follows: [Parasitic index (PI) = ((number of parasite/100 cells in treated wells) × (% of infected macrophage in treated well)/(number of parasite/100 cells in untreated wells) × (% of infected macrophage in untreated wells)) × 100].

[3] = tested on: Pru type II strain of T. gondii; design: method as in PMID 29414107; conditions: read-out: IC50, inhibition of T. gondii type II strain; cited from earlier work
[4] = tested on: RH type I strain of T. gondii; test: Anti-T. gondii activity in infected HFF monolayers, type I strain; assay type: cell-based, Toxoplasma gondii
Protocol: as §1

T. gondii = test: Anti-T. gondii activity in infected HFF monolayers, strain not given; assay type: cell-based, Toxoplasma gondii
Protocol: as §1

recombinant HDAC1 enzyme = target: T1, recombinant HDAC1 enzyme (Homo sapiens, UniProt Q13547); test: HDAC inhibition, recombinant HDAC1 (fluorometric HDAC assay kit); assay type: biochemical; conditions: Figure 1B
T1 construct: purchased Active Motif
T1 sequence (Q13547 whole entry): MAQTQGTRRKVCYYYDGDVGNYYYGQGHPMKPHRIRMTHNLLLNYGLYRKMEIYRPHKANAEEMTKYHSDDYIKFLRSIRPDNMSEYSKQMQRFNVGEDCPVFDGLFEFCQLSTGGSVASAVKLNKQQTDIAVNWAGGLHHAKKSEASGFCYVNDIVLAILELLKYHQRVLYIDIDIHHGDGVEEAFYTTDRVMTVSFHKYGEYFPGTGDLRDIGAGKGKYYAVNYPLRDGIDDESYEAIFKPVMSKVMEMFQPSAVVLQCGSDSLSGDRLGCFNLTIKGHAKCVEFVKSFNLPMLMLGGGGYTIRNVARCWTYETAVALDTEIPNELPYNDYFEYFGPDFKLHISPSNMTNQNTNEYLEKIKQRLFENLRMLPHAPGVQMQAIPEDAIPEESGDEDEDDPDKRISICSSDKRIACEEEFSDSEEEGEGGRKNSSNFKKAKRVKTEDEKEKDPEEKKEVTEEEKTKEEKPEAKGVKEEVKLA
Protocol: (§2) The HDACi effect against HeLa nuclear extracts and recombinant proteins were measured using a fluorometric HDAC assay kit (Active Motif, La Hulpe, Belgium) according to the manufacturer’s instructions. Briefly, 30 μL of HeLa nuclear extract (Active Motif, Belgium) or HDAC 1 recombinant protein (Active Motif, Belgium) were mixed with 5 μL of a 10× compound and 10 μL of assay buffer. A positive control, containing trichostatin A at a final concentration of 2 μM, was analyzed for each independent experiment. A fluorogenic substrate (10 μL) was added, and the reaction was allowed to proceed for 30 min at room temperature and then stopped by the addition of a developer containing trichostatin A. The fluorescence was monitored after 30 min at excitation and emission wavelengths of 360 and 460 nm, respectively.

[5] = tested on: HeLa cell nuclear extract, which contains mainly HDACs 1, 2, 6, and 8; test: HDAC inhibition, HeLa nuclear extract (fluorometric HDAC assay kit); assay type: biochemical, human; conditions: HeLa nuclear extracts; ratio of IC50 versus 363
Protocol: as §2

## COc1cccc(CC(=O)Nc2ccc(C(=O)NO)cc2)c1 [Compound 363, N-hydroxy-4-[2-(3-methoxyphenyl)acetamido]benzamide]
[1]; type I strain, read-out: IC50, inhibition of T. gondii type I strain
  IC50: 0.35 µM
[1]; type I versus type II
  fold higher susceptibility of type I strains than type II strains: 6 fold
[2]
  IC50: 0.853 µM
[3]
  IC50: 2.27 µM
[4]; Toxoplasma gondii, type I (RH) strain, HFF, 24 h, read-out: IC50, inhibition of T. gondii type I strain
  IC50: 0.153 µM
[4]; type I versus type II, this work
  fold higher susceptibility of type I strains than type II strains: 5.5 fold

## COc1ccccc1CNC(=O)c1ccc(C(=O)NO)cc1 [Compound D16, 1-N-hydroxy-4-N-[(2-methoxyphenyl)methyl]benzene-1,4-dicarboxamide]
T. gondii; even at concentrations higher than 1000 nM, RH type I and Pru type II strains (Figure 1C)
  anti-parasitic activity: No anti-parasitic activity
Recombinant HDAC1 enzyme
  potency on deacetylase activity of recombinant HDAC1, compared to 363: lower potency
[5]
  fold less efficient in HDACi activity compared to 363: 13 fold

## CCc1nc(N)nc(N)c1-c1ccc(Cl)cc1 [Pyrimethamine, reference compound]
T. gondii; Toxoplasma gondii, positive control, strain not stated
  IC50: 0.453 µM
